Data on 3 compounds can be found in patent US7678829B2, “Oculoselective drugs and prodrugs” (QLT Inc., priority 2004, dated 2010).

One data set deals with albino rabbits. Description: Corneal anesthesia measurements (Cochet's esthesiometer). In kind it is in vivo, rabbit. The protocol:
The effect of a 50 μl single instillation of 0.3%, 0.5%, 1.0% and 2.0% solution of compound 7 on corneal anesthesia, after a single instillation in the conjunctival sac of the right eyes of albino rabbits (N=5) was measured using a Cochet's esthesiometer (nylon thread: 0.12 mm diameter, 10 mm long). Corneal anesthesia was evaluated by the number of comeal mechanical stimuli necessary to induce a blinking reflex. The effect of drug solutions was compared with sterile 0.9% NaCl treated animals (control group) and 0.4% oxybuprocaine (Novesine®).

A short description of data set [1]: Accelerated stability test of 0.25% solutions in acetate buffer, HPLC. In kind it is physicochemical. The note with it: for projected shelf-life: conventional eye drop formulation, at room temperature. The method, then:
An accelerated stability test was conducted on 0.25% solutions of compounds 6, 7, and 8 (Example 2) at 40° C. for 1, 2, 3, 4, 8 and 12 weeks and monitored for the disappearance of the prodrugs and appearance of the parent compound by HPLC analysis. The parent compound (referred to hereinafter as compound 4) has the formula: […]
The respective compounds were dissolved in an acetate buffer, pH 3.5 (0.018% sodium acetate, 0.135% acetic acid, 0.9% sodium chloride in water for injection) to obtain 0.25% solution. The stability of the compounds was determined at 40° C. for 1, 2, 3, 4, 8, and 12 weeks. The concentration of the parent compound as well as the concentrations of the prodrug compounds 6, 7, and 8 at each time point by HPLC method.

A short description of data set [2]: Ocular bioavailability, aqueous humor analyzed by HPLC. It counts as in vivo. The settings on record: rabbit aqueous humor. The method, then:
Three rabbits were used per time point. The 50 μl test substance was administered in a single instillation using a micropipette into the conjunctival sac of the right and the left eyes. The rabbits were anesthetized with an intramuscular injection of Imalgéne® 1000 (ketamine 32 mg/kg), and Rompun® (xylasine 7.5 mg/kg). They were then desanguinated by cardiac puncture and thereafter euthanized by an overdose of pentobarbital. Immediately after death, the eyes were micro-dissected to obtain: cornea (C), aqueous humor (AH), and iris-ciliary body (ICB). All samples were stored at −80° C. Only aqueous humor (AH) samples were analyzed by HPLC.

Regarding `Cc1cc(O)c(O)cc1C(=O)OCC(CNC(C)(C)CNC(=O)C1CCOC1)OC(=O)C(C)(C)C` (centres unmarked) [Compound 6, reference compound], the “corneal sensitivity (local anesthetic activity)” value in the data set on albino rabbits (at 1%) is given as “complete comeal sensitivity loss”. Besides, the projected shelf-life in data set [1] turned out to be 2.6 months. In data set [2], the “level of the prodrug itself in aqueous humor” value is listed as “below the detection limit”.
Take `Cc1cc(O)c(O)cc1C(=O)OCC(CNC(C)(C)CNC(=O)C1CCOC1)OC(=O)C1(C)CC1` (centres unmarked) [Compound 7, 4,5-Dihydroxy-2-methyl-benzoic acid 3-{1,1-dimethyl-2-[(tetrahydro-furan-3-carbonyl)-amino]-ethylamino}-2-(1-methyl-cyclopropanecarbonyloxy)-propyl ester]: in the data set on albino rabbits (50 μl single instillation of 0.3%, 0.5%, 1.0% and 2.0% solution, compared to 0.4% oxybuprocaine), the “corneal sensitivity (local anesthetic activity)” value is reported as “no comeal sensitivity”. For the same compound, in data set [1] (0.25% solution, 40° C., pH 3.5, compared among compounds 6, 7 and 8), the “relative stability (FIG. 1, percent degradation)” value is listed as “most stable”. Further, the projected shelf-life result in data set [1] is recorded as “at least 18 months”. In data set [2], the “level of the prodrug itself in aqueous humor” value was “also present in aqueous humor”.
For the compound `Cc1cc(O)c(O)cc1C(=O)OCC(CNC(C)(C)CNC(=O)C1CCOC1)OC(=O)C1CC1(C)C` (centres unmarked) [Compound 8, 4,5-dihydroxy-2-methyl-benzoic acid 2-(2,2-dimethyl-cyclopropanecarbonyloxy)-3-{1,1-dimethyl-2-[(tetrahydro-furan-3-carbonyl)-amino]-ethylamino}-propyl ester], in data set [1], the projected shelf-life is recorded as 7.9 months.
